Values quoted from earlier work as cited in patent EP1336411A1, “Compositions and methods for improving enzyme replacement therapy of lysosomal storage diseases” (Academisch Medisch Centrum bij de Universiteit van Amsterdam, priority 2002, dated 2003).

Molecular target: alpha-Galactosidase A (Homo sapiens, UniProt P06280)
Conditions: read-out: apparent Km; artificial substrate 4-methylumbelliferyl-alpha-D-galactopyranoside; pH 4.6 (maximal activity)

Chain of alpha-Galactosidase A (P06280 32-429): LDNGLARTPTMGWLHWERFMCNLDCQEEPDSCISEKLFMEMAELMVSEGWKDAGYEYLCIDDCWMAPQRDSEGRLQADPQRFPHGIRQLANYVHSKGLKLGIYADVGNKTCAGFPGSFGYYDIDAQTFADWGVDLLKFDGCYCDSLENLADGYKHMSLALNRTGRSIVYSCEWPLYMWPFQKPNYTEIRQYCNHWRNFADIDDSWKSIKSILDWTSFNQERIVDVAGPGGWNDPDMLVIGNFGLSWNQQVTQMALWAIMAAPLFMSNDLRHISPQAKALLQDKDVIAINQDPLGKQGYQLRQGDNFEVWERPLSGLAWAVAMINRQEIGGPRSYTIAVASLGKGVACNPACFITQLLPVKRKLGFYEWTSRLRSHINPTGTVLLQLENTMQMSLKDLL

Q: With Cc1cc(=O)oc2cc(O[C@H]3O[C@H](CO)[C@H](O)[C@H](O)[C@H]3O)ccc12 [4-methylumbelliferyl-alpha-D-galactopyranoside] as the compound, how does the Km read?
A: 2000 µM
